Reference: ChEMBL document CHEMBL4219254, “Harnessing biosynthesis and quantitative NMR for late stage functionalization of lead molecules: Application to the M1 positive allosteric modulator (PAM) program” (Bioorg Med Chem Lett, 2018)
Blank lines part the entries; values can stand above or below the compound they belong to.

Legend:
[1] = Permeability in RRCK cells; assay type: ADME, cell-based, Canis lupus familiaris, MDCKII-LE; conditions: dog, MDCK; read-out: permeability
[2] = biological target: T1, Muscarinic acetylcholine receptor M1 (Homo sapiens, UniProt P11229); assay: Positive allosteric modulation of human muscarinic M1 receptor expressed in CHO cells assessed as increase in ACh-induced intracellular calcium level preincubated for 10 mins followed by ACh addition measured every 2 secs for 80 secs by Fluo-4 dye-based FLIPR assay; assay type: functional, cell-based
T1 sequence (P11229 whole entry): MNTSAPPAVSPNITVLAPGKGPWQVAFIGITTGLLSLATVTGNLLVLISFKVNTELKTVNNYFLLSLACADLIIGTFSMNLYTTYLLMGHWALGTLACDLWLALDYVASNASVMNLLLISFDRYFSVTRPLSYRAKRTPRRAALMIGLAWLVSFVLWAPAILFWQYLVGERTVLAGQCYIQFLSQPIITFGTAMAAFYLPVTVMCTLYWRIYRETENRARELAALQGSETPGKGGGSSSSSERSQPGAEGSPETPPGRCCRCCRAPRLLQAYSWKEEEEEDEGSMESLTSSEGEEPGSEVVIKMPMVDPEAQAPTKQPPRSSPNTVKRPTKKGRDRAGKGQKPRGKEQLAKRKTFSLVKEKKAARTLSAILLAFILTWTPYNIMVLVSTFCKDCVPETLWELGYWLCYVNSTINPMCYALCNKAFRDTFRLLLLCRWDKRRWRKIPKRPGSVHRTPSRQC

[3] = Drug level in rabbit liver microsomes treated with 5-(4-(1H-pyrazol-1-yl)benzyl)-N-((1S,2S)-2-hydroxycyclohexyl)-1,6-dimethyl-2-oxo-1,2-dihydropyridine-3-carboxamide at 20 uM after 60 mins by UHPLC-UV-HRMS analysis; assay type: ADME, Oryctolagus cuniculus, microsome
[4] = Drug level in dexamethasone-induced rat liver microsomes treated with N-((3R,4S)-3-hydroxytetrahydro-2H-pyran-4-yl)-5-methyl-4-(4-(thiazol-4-yl)benzyl)picolinamide at 20 uM after 60 mins by UHPLC-UV-HRMS analysis; assay type: ADME, microsome; conditions: 1 h
[5] = Drug level in guinea pig liver microsomes treated with 1-(4-(1H-pyrazol-1-yl)benzyl)-N-((1S,2S)-2-hydroxycyclohexyl)-1H-pyrrolo[3,2-b]pyridine-3-carboxamide at 20 uM after 75 mins by UHPLC-UV-HRMS analysis; assay type: ADME, Cavia porcellus, microsome; conditions: 1.25 h
[6] = Drug metabolism in dexamethasone-induced rat liver microsomes assessed as formation of 4-(hydroxy(4-(thiazol-4-yl)phenyl)methyl)-N-((3R,4S)-3-hydroxytetrahydro-2H-pyran-4-yl)-5-methylpicolinamide at 20 uM after 60 mins by UHPLC-UV-HRMS analysis; assay type: ADME, microsome; conditions: 1 h
[7] = Drug metabolism in dexamethasone-induced rat liver microsomes assessed as formation of N-((3R,4S)-2,3-dihydroxytetrahydro-2H-pyran-4-yl)-5-methyl-4-(4-(thiazol-4-yl)benzyl)picolinamide at 20 uM after 60 mins by UHPLC-UV-HRMS analysis; assay type: ADME, microsome; conditions: 1 h
[8] = Drug level in rabbit liver microsomes treated with 4-(4-(1H-pyrazol-1-yl)benzyl)-N-((3R,4S)-3-hydroxytetrahydro-2H-pyran-4-yl)-5-methylpicolinamide at 20 uM after 60 mins by UHPLC-UV-HRMS analysis; assay type: ADME, Oryctolagus cuniculus, microsome
[9] = Drug level in hamster liver microsomes treated with N-((3R,4S)-3-hydroxytetrahydro-2H-pyran-4-yl)-1-(4-(1-methyl-1H-pyrazol-3-yl)benzyl)-1H-pyrrolo[3,2-b]pyridine-3-carboxamide at 20 uM by UHPLC-UV-HRMS analysis; assay type: ADME, microsome; conditions: cricetinae
[10] = Drug metabolism in rabbit liver microsomes assessed as formation of 5-(4-(1H-pyrazol-1-yl)benzyl)-N-((1S,2S)-2-hydroxycyclohexyl)-6-(hydroxymethyl)-1-methyl-2-oxo-1,2-dihydropyridine-3-carboxamide at 20 uM after 60 mins by UHPLC-UV-HRMS analysis; assay type: ADME, Oryctolagus cuniculus, microsome
[11] = Drug metabolism in rabbit liver microsomes assessed as formation of 5-(4-(1H-pyrazol-1-yl)benzyl)-N-((1S,2S)-2,5-dihydroxycyclohexyl)-6-methyl-2-oxo-1,2-dihydropyridine-3-carboxamide at 20 uM after 60 mins by UHPLC-UV-HRMS analysis; assay type: ADME, Oryctolagus cuniculus, microsome
[12] = Drug metabolism in rabbit liver microsomes assessed as formation of 5-(4-(1H-pyrazol-1-yl)benzyl)-N-((1S,2S)-2,4-dihydroxycyclohexyl)-1,6-dimethyl-2-oxo-1,2-dihydropyridine-3-carboxamide at 20 uM after 60 mins by UHPLC-UV-HRMS analysis; assay type: ADME, Oryctolagus cuniculus, microsome
[13] = Drug metabolism in rabbit liver microsomes assessed as formation of 5-(4-(1H-pyrazol-1-yl)benzyl)-N-((1S,2S)-2,4-dihydroxycyclohexyl)-6-(hydroxymethyl)-1-methyl-2-oxo-1,2-dihydropyridine-3-carboxamide at 20 uM after 60 mins by UHPLC-UV-HRMS analysis; assay type: ADME, Oryctolagus cuniculus, microsome
[14] = test system: MDR1; assay: Efflux ratio of permeability in MDCK cells expressing MDR1; assay type: ADME, cell-based, Canis lupus familiaris; conditions: dog
[15] = Drug metabolism in rabbit liver microsomes assessed as formation of 4-(4-(1H-pyrazol-1-yl)benzyl)-N-((4S,5R)-2,5-dihydroxytetrahydro-2H-pyran-4-yl)-5-methylpicolinamide at 20 uM after 60 mins by UHPLC-UV-HRMS analysis; assay type: ADME, Oryctolagus cuniculus, microsome
[16] = Drug metabolism in rabbit liver microsomes assessed as formation of 4-(4-(1H-pyrazol-1-yl)benzyl)-N-((3R,4S)-2,3-dihydroxytetrahydro-2H-pyran-4-yl)-5-methylpicolinamide at 20 uM after 60 mins by UHPLC-UV-HRMS analysis; assay type: ADME, Oryctolagus cuniculus, microsome
[17] = Drug metabolism in rabbit liver microsomes assessed as formation of 4-((4-(1H-pyrazol-1-yl)phenyl)(hydroxy)methyl)-N-((3R,4S)-3-hydroxytetrahydro-2H-pyran-4-yl)-5-methylpicolinamide at 20 uM after 60 mins by UHPLC-UV-HRMS analysis; assay type: ADME, Oryctolagus cuniculus, microsome
[18] = Drug metabolism in rabbit liver microsomes assessed as formation of 4-(4-(4-hydroxy-1H-pyrazol-1-yl)benzyl)-N-((3R,4S)-3-hydroxytetrahydro-2H-pyran-4-yl)-5-methylpicolinamide at 20 uM after 60 mins by UHPLC-UV-HRMS analysis; assay type: ADME, Oryctolagus cuniculus, microsome
[19] = Drug metabolism in rabbit liver microsomes assessed as formation of 4-(4-(1H-pyrazol-1-yl)benzyl)-5-methyl-N-((2R,3S)-1,2,5-trihydroxypentan-3-yl)picolinamide at 20 uM after 60 mins by UHPLC-UV-HRMS analysis; assay type: ADME, Oryctolagus cuniculus, microsome
[20] = Drug metabolism in rabbit liver microsomes assessed as formation of 4-(4-(1H-pyrazol-1-yl)benzyl)-5-(hydroxymethyl)-N-((3R,4S)-3-hydroxytetrahydro-2H-pyran-4-yl)picolinamide at 20 uM after 60 mins by UHPLC-UV-HRMS analysis; assay type: ADME, Oryctolagus cuniculus, microsome
[21] = Intrinsic clearance in human liver microsomes; assay type: ADME, microsome; conditions: read-out: CLH
[22] = Drug level in rat liver microsomes treated with N-((3R,4S)-3-hydroxytetrahydro-2H-pyran-4-yl)-5-methyl-1-(4-(1-methyl-1H-pyrazol-3-yl)benzyl)-1H-pyrrolo[3,2-b]pyridine-3-carboxamide at 20 uM after 70 mins by UHPLC-UV-HRMS analysis; assay type: ADME, microsome

Compound: O=C(N[C@H]1CCCC[C@@H]1O)c1cn(Cc2ccc(-n3cccn3)cc2)c2cccnc12
Papp [1]: 16.2 ×10⁻⁶ cm/s

Compound: O=C(N[C@H]1C(O)CCC[C@@H]1O)c1cn(Cc2ccc(-n3cccn3)cc2)c2cccnc12 (some centres not stated)
Drug metabolism [5]: Metabolite_Detected
EC50 [2]: > 249 nM

Compound: O=C(N[C@H]1CCC(O)C[C@@H]1O)c1cn(Cc2ccc(-n3cccn3)cc2)c2cccnc12 (stereo in doubt; 20b)
EC50 [2]: 16 nM

Compound: Cn1ccc(-c2ccc(Cn3cc(C(=O)N[C@H]4CCOC(O)[C@@H]4O)c4ncccc43)cc2)n1 (some centres not stated)
Drug metabolism [9]: Metabolite_Detected
EC50 [2]: > 257 nM

Compound: Cc1cnc(C(=O)N[C@H]2CCOC[C@@H]2O)cc1C(O)c1ccc(-c2cscn2)cc1 (stereo in doubt; 14a)
EC50 [2]: > 4150 nM
Drug metabolism [4]: Metabolite_Detected

Compound: Cc1ccc2c(n1)c(C(=O)N[C@H]1CCOC[C@@H]1O)cn2Cc1ccc(-c2ccn(C)n2)cc1
Papp [1]: 21 ×10⁻⁶ cm/s

Compound: O=C(N[C@H]1CCCC[C@@H]1O)c1cn(Cc2ccc([N+]3([O-])C=CC=N3)cc2)c2cccnc12 (some centres not stated)
Drug metabolism [5]: Metabolite_Detected
EC50 [2]: 34 nM

Compound: Cn1ccc(-c2ccc(Cn3cc(C(=O)N[C@H]4CCOC[C@@H]4O)c4nc(C=O)ccc43)cc2)n1
Drug metabolism [22]: Metabolite_Detected
EC50 [2]: 184 nM

Compound: O=C(N[C@H]1CCC(O)C[C@@H]1O)c1cn(Cc2ccc(-n3cccn3)cc2)c2cccnc12 (stereo in doubt; 20a)
Drug metabolism [5]: Metabolite_Detected
EC50 [2]: 167 nM

Compound: Cc1cnc(C(=O)N[C@H]2CCOC[C@@H]2O)cc1C(O)c1ccc(-c2cscn2)cc1 (stereo in doubt; 14b)
EC50 [2]: > 1100 nM

Compound: O=C(N[C@H]1CCOC[C@@H]1O)c1cn(Cc2ccc(-c3cc[nH]n3)cc2)c2cccnc12
Drug metabolism [9]: Metabolite_Detected

Compound: Cn1ccc(-c2ccc(Cn3cc(C(=O)N[C@H]4CCOC[C@@H]4O)c4nc(CO)ccc43)cc2)n1
Drug metabolism [22]: Metabolite_Detected
EC50 [2]: 99 nM

Compound: O=C(N[C@H]1CC(O)CC[C@@H]1O)c1cn(Cc2ccc(-n3cccn3)cc2)c2cccnc12 (some centres not stated)
Drug metabolism [5]: Metabolite_Detected
EC50 [2]: > 72 nM

Compound: Cn1ccc(-c2ccc(Cn3cc(C(=O)N[C@H]4CC(O)OC[C@@H]4O)c4ncccc43)cc2)n1 (some centres not stated)
Drug metabolism [9]: Metabolite_Detected
EC50 [2]: > 207 nM

More lines, now with the values ahead:

EC50 [2]: 63 nM
Drug metabolism [3]: Metabolite_Detected
Compound: Cc1c(Cc2ccc(-n3cccn3)cc2)cc(C(=O)N[C@H]2CCC(O)C[C@@H]2O)c(=O)n1C (some centres not stated)

EC50 [2]: 162 nM
Drug metabolism [4]: Metabolite_Detected
Compound: Cc1cnc(C(=O)N[C@H]2CCOC(O)[C@@H]2O)cc1Cc1ccc(-c2cscn2)cc1 (some centres not stated)

Drug metabolism [6]: Metabolite_Detected
Drug metabolism [7]: Metabolite_Detected
Compound: Cc1cnc(C(=O)N[C@H]2CCOC[C@@H]2O)cc1Cc1ccc(-c2cscn2)cc1

Drug metabolism [8]: Metabolite_Detected
EC50 [2]: 511 nM
Compound: Cc1cnc(C(=O)N[C@H]2CCOC(O)[C@@H]2O)cc1Cc1ccc(-n2cccn2)cc1 (some centres not stated)

Drug metabolism [10]: Metabolite_Detected
Drug metabolism [11]: Metabolite_Detected
Drug metabolism [12]: Metabolite_Detected
Drug metabolism [13]: Metabolite_Detected
efflux ratio [14]: 2.7
Compound: Cc1c(Cc2ccc(-n3cccn3)cc2)cc(C(=O)N[C@H]2CCCC[C@@H]2O)c(=O)n1C

EC50 [2]: 12 nM
Drug metabolism [3]: Metabolite_Detected
Compound: Cc1[nH]c(=O)c(C(=O)N[C@H]2CC(O)CC[C@@H]2O)cc1Cc1ccc(-n2cccn2)cc1 (some centres not stated)

EC50 [2]: 40 nM
Drug metabolism [3]: Metabolite_Detected
Compound: Cn1c(CO)c(Cc2ccc(-n3cccn3)cc2)cc(C(=O)N[C@H]2CCCC[C@@H]2O)c1=O

EC50 [2]: 177 nM
Drug metabolism [3]: Metabolite_Detected
Compound: Cn1c(CO)c(Cc2ccc(-n3cccn3)cc2)cc(C(=O)N[C@H]2CCC(O)C[C@@H]2O)c1=O (some centres not stated)

EC50 ([2]; cho): > 1000 nM
Compound: Cc1cnc(C(=O)N[C@H]2CCOC[C@@H]2O)cc1C(O)c1ccc(-n2cccn2)cc1 (stereo in doubt; 11b)

Drug metabolism [8]: Metabolite_Detected
EC50 [2]: > 1000 nM
Compound: Cc1cnc(C(=O)N[C@H]2CCOC[C@@H]2O)cc1C(O)c1ccc(-n2cccn2)cc1 (stereo in doubt; 11a)

Drug metabolism [15]: Metabolite_Detected
Drug metabolism [16]: Metabolite_Detected
Drug metabolism [17]: Metabolite_Detected
Drug metabolism [18]: Metabolite_Detected
Drug metabolism [19]: Metabolite_Detected
Drug metabolism [20]: Metabolite_Detected
Compound: Cc1cnc(C(=O)N[C@H]2CCOC[C@@H]2O)cc1Cc1ccc(-n2cccn2)cc1

Drug metabolism [8]: Metabolite_Detected
EC50 [2]: > 300 nM
Compound: Cc1cnc(C(=O)N[C@@H](CCO)[C@@H](O)CO)cc1Cc1ccc(-n2cccn2)cc1

Drug metabolism [8]: Metabolite_Detected
Papp [1]: 4.6 ×10⁻⁶ cm/s
EC50 [2]: 338 nM
CLint scaled [21]: < 8 mL/min/kg
efflux ratio [14]: 15.9
Compound: O=C(N[C@H]1CCOC[C@@H]1O)c1cc(Cc2ccc(-n3cccn3)cc2)c(CO)cn1

Drug metabolism [8]: Metabolite_Detected
EC50 [2]: 70 nM
Compound: Cc1cnc(C(=O)N[C@H]2CCOC[C@@H]2O)cc1Cc1ccc(-n2cc(O)cn2)cc1

Drug metabolism [8]: Metabolite_Detected
EC50 [2]: > 3000 nM
Compound: Cc1cnc(C(=O)N[C@H]2CC(O)OC[C@@H]2O)cc1Cc1ccc(-n2cccn2)cc1 (some centres not stated)
